Like-named read-outs stand apart in the source and are kept apart here.
Key:
heart rate [1] = assay: Heart rate of the un-anesthetised dog, oral; type: in vivo, Beagle dog
uterine horn = assay: Uterus relaxing activity in vivo (ocytocine-induced contractions); conditions: rat, i.v.; compound A 16.8 μg/kg vs salbutamol 24.9 μg/kg
Experimental: The test was carried out also in the rat.
The aminal was anesthesied by ethyl carbamate.
The contractions caused in an exposed uterine horn immersed in a nutrient bath were recorded (bath: RINGER-LOCKE modified by GADDUM and VOGT). These contractions were induced by the intravenous injection of ocytocine, at the dose of 0.1 IU per kg.
After a control recording of the effects of the latter, the compound A or the Salbutamol were administered intravenously and the further ocytocine injection was carried out; its effect was compared with that of the control reaction.

[2] = Acute toxicity in the mouse, intravenous; conditions: in vivo
Excerpt: These two compounds were the subject of an acute toxicity study in the mouse.
The two compounds had similar toxicity and the pharmacological study was able, indifferently, to be carried out with one or the other, the results being, in the two cases, expressed by weight of base per kg of body weight for the in vivo tests and in molar concentration for the in vitro tests.

heart rate [3] = assay: β-stimulant specificity: heart rate of the anesthetised dog, antagonism of compound A tachycardia by acebutolol; type: in vivo
Excerpt: The results below are the averages of the values obtained in 3 dogs.

[4] = T0 + 1 min, perfusion compound A 4.2 μg/kg/min, T0: 157
[5] = T1 + 4 h 1 min, second perfusion compound A after acebutolol
[6] = T1 + 4 h 2 min, second perfusion compound A after acebutolol
[7] = T1 + 4 h 4 min, second perfusion compound A after acebutolol
[8] = T1 + 4 h 6 min, second perfusion compound A after acebutolol

With `CC(C)(C)NCC(O)c1ccc(O)c(CO)c1` (stereo not drawn) [Salbutamol, reference compound] the “Heart rate, average” value (heart rate [1]; 25 μg base/kg, 15 min, time 0: 92, 12 dogs) was 142, the “Heart rate, average” value (heart rate [1]; 25 μg base/kg, 30 min, time 0: 92) was 165 and the “Heart rate, average” value (heart rate [1]; 25 μg base/kg, 1 h, time 0: 92) was 170. The “Heart rate, average” value (heart rate [1]; 25 μg base/kg, 2 h, time 0: 92) was 156, the “Heart rate, average” value (heart rate [1]; 25 μg base/kg, 3 h, time 0: 92) was 137 and the “Heart rate, average” value (heart rate [1]; 25 μg base/kg, 4 h, time 0: 92) was 130. For the same molecule, the “Heart rate, average” value (heart rate [1]; 25 μg base/kg, 5 h, time 0: 92) was 120, the “Heart rate, average” value (heart rate [1]; 83 μg base/kg, 15 min, time 0: 90, 12 dogs) was 163 and the “Heart rate, average” value (heart rate [1]; 83 μg base/kg, 30 min, time 0: 90) was 194. For the same molecule, the “Heart rate, average” value (heart rate [1]; 83 μg base/kg, 1 h, time 0: 90) was 197, the “Heart rate, average” value (heart rate [1]; 83 μg base/kg, 2 h, time 0: 90) was 195 and the “Heart rate, average” value (heart rate [1]; 83 μg base/kg, 3 h, time 0: 90) was 172. For the same molecule, the “Heart rate, average” value (heart rate [1]; 83 μg base/kg, 4 h, time 0: 90) was 150, the “Heart rate, average” value (heart rate [1]; 83 μg base/kg, 5 h, time 0: 90) was 148 and the “Heart rate, average” value (heart rate [1]; 83 μg base/kg, 6 h, time 0: 90) was 141. The “Heart rate, average” value (heart rate [1]; 83 μg base/kg, 7 h, time 0: 90) was 138 and the “Tachycardiac activity (comparison with Salbutamol)” value (heart rate [1]; un-anesthetised dog, in words) was “more active than compound B: the effect of the low dose of Salbutamol is equal to that of the high dose of compound B”.

For `COc1cc(C(O)CNC(C)CCn2cnc3ccccc32)ccc1O` (stereo not drawn) [Compound A, 1-[1-benzimidazolyl]-N-[2-(4-hydroxy-3-methoxy-phenyl)2-hydroxy-ethyl]3-amino butane basic sulphate, dihydrate], the “Inhibiting activity on ocytocine-induced uterine contractions (comparison with Salbutamol)” value (uterine horn) was “inhibiting activity comparable with that of salbutamol”, the LD50 ([2]; as base, confidence limits printed, read-out: LD50 expressed as base) was 96 mg/kg and the LD50 ([2]; by weight of product, confidence limits p=0.05 printed, read-out: LD50) was 114 mg/kg. The Heart rate (heart rate [3]; [4]) was 180 beats/min, the Heart rate variation (heart rate [3]; [4]) was “+23” and the Heart rate variation (heart rate [3]; T0 + 2 min, perfusion compound A) was “+40”. For the same molecule, the Heart rate (heart rate [3]; T0 + 2 min, perfusion compound A, T0: 157) was 197 beats/min, the Heart rate variation (heart rate [3]; T0 + 4 min, perfusion compound A) was “+45” and the Heart rate (heart rate [3]; T0 + 4 min, perfusion compound A, T0: 157) was 202 beats/min. For the same molecule, the Heart rate variation (heart rate [3]; T0 + 6 min = T1, perfusion compound A) was “+48”, the Heart rate (heart rate [3]; T0 + 6 min = T1, perfusion compound A, T0: 157) was 205 beats/min and the Heart rate (heart rate [3]; [5]) was 146 beats/min. For the same molecule, the Heart rate variation (heart rate [3]; [5]) was -11, the Heart rate (heart rate [3]; [6]) was 155 beats/min and the Heart rate variation (heart rate [3]; [6]) was -2. For the same molecule, the Heart rate (heart rate [3]; [7]) was 160 beats/min, the Heart rate variation (heart rate [3]; [7]) was “+3” and the Heart rate (heart rate [3]; [8]) was 160 beats/min. For the same molecule, the Heart rate variation (heart rate [3]; [8]) was “+3”.

Source: patent US4513001A, “β-Adrenergic 1-[1-benzimidazolyl]-N-[2-(4-hydroxy-3-methoxy-phenyl)-2-hydroxy-ethyl]- 3-amino butane and salts and hydrates thereof” (priority 1982, dated 1985)
